Tested on: 475296-252-R-J1-PDC spheroid viability
Experiment: Anticancer human tumor 475296-252-R-J1-PDC patient-derived rectal carcinoma cell line growth inhibition [PI3K]
Conditions: spheroids with HUVEC and MSC; for IC50: curve of first compound; for viability, T/C: stronger effect = lower value
In short: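 Stroma-containing spheroids: tumor line, pooled-donor HUVEC, hMSC. Treatments: targeted agents with PI3K inhibitors. Dosing: clinically relevant, half-log spacing, 10 microM ceiling without known Cmax. Read-out: cell viability.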
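Also: spheroids exposed to agents for seven days before readout.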

`Cn1nccc1Nc1nccc(-c2ccn(C(CO)c3ccc(Cl)c(F)c3)c(=O)c2)n1` (centres undefined) + Cc1nc(NC(=O)N2CCCC2C(N)=O)sc1-c1ccnc(C(C)(C)C(F)(F)F)c1 gave an IC50 (second compound 0.0316 µM) of over 10000 nM, an IC50 (second compound 0.1 µM) of over 10000 nM and an IC50 (second compound 0.316 µM) of over 10000 nM. It also gave an IC50 (second compound 1 µM) of over 10000 nM, an IC50 (second compound 3.16 µM) of over 10000 nM and an IC50 (second compound 10 µM) of 1440 nM. The viability, T/C (second compound 0.0316 µM, first compound 0.0316 µM) was 108%, the viability, T/C (second compound 0.0316 µM, first compound 0.1 µM) was 94.2% and the viability, T/C (second compound 0.0316 µM, first compound 0.316 µM) was 106%. For the same compound, the viability, T/C (second compound 0.0316 µM, first compound 1 µM) was 88.9%, the viability, T/C (second compound 0.0316 µM, first compound 3.16 µM) was 99.6% and the viability, T/C (second compound 0.0316 µM, first compound 10 µM) was 79.2%. The viability, T/C (second compound 0.1 µM, first compound 0.0316 µM) was 95.8%, the viability, T/C (second compound 0.1 µM, first compound 0.1 µM) was 87.3% and the viability, T/C (second compound 0.1 µM, first compound 0.316 µM) was 94.6%. The viability, T/C (second compound 0.1 µM, first compound 1 µM) was 91.4%, the viability, T/C (second compound 0.1 µM, first compound 3.16 µM) was 99.6% and the viability, T/C (second compound 0.1 µM, first compound 10 µM) was 75.9%. It also gave a viability, T/C (second compound 0.316 µM, first compound 0.0316 µM) of 105%, a viability, T/C (second compound 0.316 µM, first compound 0.1 µM) of 108% and a viability, T/C (second compound 0.316 µM, first compound 0.316 µM) of 87.2%. For the same compound, the viability, T/C (second compound 0.316 µM, first compound 1 µM) was 85%, the viability, T/C (second compound 0.316 µM, first compound 3.16 µM) was 81.1% and the viability, T/C (second compound 0.316 µM, first compound 10 µM) was 68.5%. It also gave a viability, T/C (second compound 1 µM, first compound 0.0316 µM) of 92.1%, a viability, T/C (second compound 1 µM, first compound 0.1 µM) of 91.5% and a viability, T/C (second compound 1 µM, first compound 0.316 µM) of 91%. For the same compound, the viability, T/C (second compound 1 µM, first compound 1 µM) was 84.5%, the viability, T/C (second compound 1 µM, first compound 3.16 µM) was 88% and the viability, T/C (second compound 1 µM, first compound 10 µM) was 59.9%. For the same compound, the viability, T/C (second compound 3.16 µM, first compound 0.0316 µM) was 85.9%, the viability, T/C (second compound 3.16 µM, first compound 0.1 µM) was 89.3% and the viability, T/C (second compound 3.16 µM, first compound 0.316 µM) was 79.8%. The viability, T/C (second compound 3.16 µM, first compound 1 µM) was 79.1%, the viability, T/C (second compound 3.16 µM, first compound 3.16 µM) was 58.8% and the viability, T/C (second compound 3.16 µM, first compound 10 µM) was 50.7%. The viability, T/C (second compound 10 µM, first compound 0.0316 µM) was 87.7%, the viability, T/C (second compound 10 µM, first compound 0.1 µM) was 86% and the viability, T/C (second compound 10 µM, first compound 0.316 µM) was 83.7%. It also gave a viability, T/C (second compound 10 µM, first compound 1 µM) of 63.1%, a viability, T/C (second compound 10 µM, first compound 3.16 µM) of 21.8% and a viability, T/C (second compound 10 µM, first compound 10 µM) of 8.46%.
Compound `Cn1cnc2c(F)c(Nc3ccc(Br)cc3Cl)c(C(=O)NOCCO)cc21` + CC(Nc1ncnc2nc[nH]c12)c1cc2cccc(Cl)c2c(=O)n1-c1ccccc1 has an IC50 (second compound 0.0316 µM) of over 3000 nM, an IC50 (second compound 0.1 µM) of over 3000 nM and an IC50 (second compound 0.316 µM) of over 3000 nM. For the same compound, the IC50 (second compound 1 µM) was 2910 nM, the IC50 (second compound 3.16 µM) was 2120 nM and the IC50 (second compound 10 µM) was 1210 nM. The viability, T/C (second compound 0.0316 µM, first compound 0.00949 µM) was 84.4%, the viability, T/C (second compound 0.0316 µM, first compound 0.03 µM) was 84.9% and the viability, T/C (second compound 0.0316 µM, first compound 0.0949 µM) was 81.6%. The viability, T/C (second compound 0.0316 µM, first compound 0.3 µM) was 70.5%, the viability, T/C (second compound 0.0316 µM, first compound 0.949 µM) was 63.1% and the viability, T/C (second compound 0.0316 µM, first compound 3 µM) was 53.9%. It also gave a viability, T/C (second compound 0.1 µM, first compound 0.00949 µM) of 95.8%, a viability, T/C (second compound 0.1 µM, first compound 0.03 µM) of 85.5% and a viability, T/C (second compound 0.1 µM, first compound 0.0949 µM) of 93.3%. It also gave a viability, T/C (second compound 0.1 µM, first compound 0.3 µM) of 73.5%, a viability, T/C (second compound 0.1 µM, first compound 0.949 µM) of 66.6% and a viability, T/C (second compound 0.1 µM, first compound 3 µM) of 55.7%. For the same compound, the viability, T/C (second compound 0.316 µM, first compound 0.00949 µM) was 90.7%, the viability, T/C (second compound 0.316 µM, first compound 0.03 µM) was 92.9% and the viability, T/C (second compound 0.316 µM, first compound 0.0949 µM) was 86.5%. The viability, T/C (second compound 0.316 µM, first compound 0.3 µM) was 74.8%, the viability, T/C (second compound 0.316 µM, first compound 0.949 µM) was 76.3% and the viability, T/C (second compound 0.316 µM, first compound 3 µM) was 51.5%. It also gave a viability, T/C (second compound 1 µM, first compound 0.00949 µM) of 95.7%, a viability, T/C (second compound 1 µM, first compound 0.03 µM) of 95.7% and a viability, T/C (second compound 1 µM, first compound 0.0949 µM) of 81.4%. The viability, T/C (second compound 1 µM, first compound 0.3 µM) was 68.2%, the viability, T/C (second compound 1 µM, first compound 0.949 µM) was 67.3% and the viability, T/C (second compound 1 µM, first compound 3 µM) was 48.1%. For the same compound, the viability, T/C (second compound 3.16 µM, first compound 0.00949 µM) was 94.2%, the viability, T/C (second compound 3.16 µM, first compound 0.03 µM) was 92.9% and the viability, T/C (second compound 3.16 µM, first compound 0.0949 µM) was 76%. It also gave a viability, T/C (second compound 3.16 µM, first compound 0.3 µM) of 68.3%, a viability, T/C (second compound 3.16 µM, first compound 0.949 µM) of 62.5% and a viability, T/C (second compound 3.16 µM, first compound 3 µM) of 44.9%. For the same compound, the viability, T/C (second compound 10 µM, first compound 0.00949 µM) was 100%, the viability, T/C (second compound 10 µM, first compound 0.03 µM) was 95% and the viability, T/C (second compound 10 µM, first compound 0.0949 µM) was 73.2%. For the same compound, the viability, T/C (second compound 10 µM, first compound 0.3 µM) was 59.9%, the viability, T/C (second compound 10 µM, first compound 0.949 µM) was 59.6% and the viability, T/C (second compound 10 µM, first compound 3 µM) was 38.3%.

— PubChem BioAssay AID1963980 (Molecular Pharmacology Branch, DTP, NCI, 2024)
